In patent US20240199613A1 (TAKEDA PHARMACEUTICAL COMPANY LIMITED, priority 2021, published 2024):
pEC50: −log10 of the molar value.

Experiments:
[1] = target: human activated kallikrein enzyme (Homo sapiens, UniProt P03952); experiment: Inhibition of activated plasma kallikrein, fluorogenic peptide substrate (PFR-AMC) assay, 500 pM enzyme format; format: biochemical; conditions: 500 pM activated kallikrein, 300 uM PFR-AMC, 30 min preincubation, 10 min reaction, room temperature; read-out: Primary Dose Response Assay: Average EC50
Sequence of human activated kallikrein enzyme (P03952 391-638 limits assumed): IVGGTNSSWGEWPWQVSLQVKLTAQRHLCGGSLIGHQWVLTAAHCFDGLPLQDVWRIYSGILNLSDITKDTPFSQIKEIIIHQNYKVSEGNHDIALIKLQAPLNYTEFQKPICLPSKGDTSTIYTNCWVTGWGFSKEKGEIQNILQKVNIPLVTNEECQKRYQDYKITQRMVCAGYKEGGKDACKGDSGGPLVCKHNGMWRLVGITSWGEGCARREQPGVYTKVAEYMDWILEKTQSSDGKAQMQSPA
Sequence of human activated kallikrein enzyme (P03952 20-390 partner limits assumed): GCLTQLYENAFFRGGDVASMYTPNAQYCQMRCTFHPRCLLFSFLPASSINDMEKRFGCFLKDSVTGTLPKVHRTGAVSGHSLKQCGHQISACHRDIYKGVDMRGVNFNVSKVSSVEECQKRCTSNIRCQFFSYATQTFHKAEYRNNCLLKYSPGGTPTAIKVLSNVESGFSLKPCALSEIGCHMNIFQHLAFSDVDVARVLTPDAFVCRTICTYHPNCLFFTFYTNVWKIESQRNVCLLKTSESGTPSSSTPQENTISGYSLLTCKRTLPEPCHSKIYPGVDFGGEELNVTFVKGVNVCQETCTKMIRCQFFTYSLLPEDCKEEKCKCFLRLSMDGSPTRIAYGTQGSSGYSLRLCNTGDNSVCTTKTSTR
Method in brief: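 500 pM enzyme preincubated 30 min at room temperature with inhibitor in 20 mM Tris pH 7.5, 150 mM NaCl, 1 mM EDTA, 0.1% PEG-400, 0.1% Triton X-100. Reaction started with 300 uM PFR-AMC and run 10 min at room temperature. Fluorescence read at 380 nm excitation/460 nm emission.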

plasma kallikrein = target: T1, plasma kallikrein (Homo sapiens, UniProt P03952); experiment: Neat human plasma assay: contact pathway-activated (FXIIa) plasma, PFR-AMC substrate; format: biochemical; conditions: citrated human plasma (78% final), 10 nM human FXIIa, 100 μM PFR-AMC, room temperature
T1 construct: from tissue; host or cells: sodium citrate collected human plasma (78% final)
T1 sequence (P03952 391-638 limits assumed): as the sequence (P03952 391-638 limits assumed) above
T1 sequence (P03952 20-390 partner limits assumed): as the sequence (P03952 20-390 partner limits assumed) above
Method in brief: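 Compounds spiked into citrated human or rat plasma (78% final), or plasma taken from orally or IV dosed rats, activated with 10 nM human FXIIa; 100 μM PFR-AMC cleavage read at 360/480 nm for 5 min, room temperature. Rates vs concentration fit to 4-parameter IC50/IC90 equation.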

| pEC50 [1] | IC90 (plasma kallikrein) [nM] | Structure (SMILES) |
| --- | --- | --- |
| ≥ 9.00 | ≤ 400 | Cc1cc(N2CC(=O)N(C)C2=O)c2nc(COc3ccc4c(N5CC6(COC6)C5)cc([C@H]5C[C@@H]5c5nccc(C)n5)nc4c3)cn2c1 [Example 96, 3-methyl-1-(6-methyl-2-(((2-((1S,2S)-2-(4-methylpyrimidin-2-yl)cyclopropyl)-4-(2-oxa-6-azaspiro[3.3]heptan-6-yl)quinolin-7-yl)oxy)methyl)imidazo[1,2-a]pyridin-8-yl)imidazolidine-2,4-dione] |
| ≥ 9.00 | ≤ 400 | Cc1ccnc([C@H]2C[C@@H]2c2cc(NCC(C)(C)O)c3ccc(OCc4cn5cc(C6CC6)cc(N6CC(=O)N(C)C6=O)c5n4)cc3n2)n1 [Example 97, 1-(6-cyclopropyl-2-(((4-((2-hydroxy-2-methylpropyl)amino)-2-((1S,2S)-2-(4-methylpyrimidin-2-yl)cyclopropyl)quinolin-7-yl)oxy)methyl)imidazo[1,2-a]pyridin-8-yl)-3-methylimidazolidine-2,4-dione] |
| ≥ 9.00 | ≤ 400 | Cc1ccnc([C@H]2C[C@@H]2c2cc(N3CC4(COC4)C3)c3ccc(OCc4cn5cc(C6CC6)cc(N6CC(=O)N(C)C6=O)c5n4)cc3n2)n1 [Example 43, 1-[6-cyclopropyl-2-[[2-[(1S,2S)-2-(4-methylpyrimidin-2-yl)cyclopropyl]-4-(2-oxa-6-azaspiro[3.3]heptan-6-yl)-7-quinolyl]oxymethyl]imidazo[1,2-a]pyridin-8-yl]-3-methyl-imidazolidine-2,4-dione] |
| ≥ 9.00 | ≤ 400 | Cc1ccnc([C@H]2C[C@@H]2c2cc(N3CCOCC3)c3ccc(NCc4cn5cc(C6CC6)cc(N6CC(=O)N(C)C6=O)c5n4)cc3n2)n1 (racemic) [Example 40, rac-1-(6-cyclopropyl-2-((1S*,2S)-2-(4-methylpyrimidin-2-yl)cyclopropyl)-4-morpholinoquinolin-7-yl)amino)methyl)imidazo[1,2-a]pyridin-8-yl)-3-methylimidazolidine-2,4-dione] |
| ≥ 9.00 | 1500 to 10000 | Cc1ccnc([C@H]2C[C@@H]2C2=CS(=O)(=O)c3ccc(NCc4cn5cc(C6CC6)ccc5n4)cc3N2)n1 (racemic) [Example 55, rac-6-(((6-cyclopropylimidazo[1,2-a]pyridin-2 yl)methyl)amino)-3-((1S*,2S*)-2-(4-methylpyrimidin-2-yl)cyclopropyl)-4H-benzo[b][1,4]thiazine 1,1-dioxide] |
| ≥ 9.00 | ≤ 400 | Cc1ccnc([C@H]2C[C@@H]2c2cc(N3CC4(COC4)C3)c3ccc(N(C)Cc4cn5cc(C6CC6)cc(N6CC(=O)N(C)C6=O)c5n4)cc3n2)n1 [Example 98, 1-(6-cyclopropyl-2-((methyl(2-((1S,2S)-2-(4-methylpyrimidin-2-yl)cyclopropyl)-4-(2-oxa-6-azaspiro[3.3]heptan-6-yl)quinolin-7-yl)amino)methyl)imidazo[1,2-a]pyridin-8-yl)-3-methylimidazolidine-2,4-dione] |
| ≥ 9.00 | 400 to 1500 | Cc1ccnc([C@H]2C[C@@H]2c2cc(OCCO)c3ccc(NCc4cn5cc(C6CC6)cc(N6CC(=O)N(C)C6=O)c5n4)cc3n2)n1 (racemic) [Example 69, rac-1-(6-cyclopropyl-2-(((4-(2-hydroxyethoxy)-2-((1S*,2S*)-2-(4-methylpyrimidin-2-yl)cyclopropyl)quinolin-7-yl)amino)methyl)imidazo[1,2-a]pyridin-8-yl)-3-methylimidazolidine-2,4-dione] |
| ≥ 9.00 | 400 to 1500 | Cc1ccnc(C2CC2c2cc(=O)c3ccc(NCc4cn5cc(C6CC6)cc(N6CC(=O)N(C)C6=O)c5n4)cc3[nH]2)n1 (single isomer, unassigned) [Example 12, 1-(6-cyclopropyl-2-(((2-(2-(4-methylpyrimidin-2-yl)cyclopropyl)-4-oxo-1,4-dihydroquinolin-7-yl)amino)methyl)imidazo[1,2-a]pyridin-8-yl)-3-methylimidazolidine-2,4-dione] |
